Results reported in paper PMC11724075, “Small-molecule-induced ERBB4 activation to treat heart failure” (Nature Communications, 2025).
Where “and” joins values, the source holds several entries; their conditions need not be identical. Equal values may be shown once.

Columns and labels:
[1] = test system: iAMs; assay: H2O2-induced cell death assay in iAMs (Toxilight), also with LY294002
Experimental: Subsequently, H2O2 (100 µM; Merck, H1009) was added and the cells were incubated for 4 h at 37 °C. All wells contained DMSO at a final concentration of 0.9%. […] After incubation at RT for 5 min, luminescence was measured using the Luminoskan Ascent.

[2] = test system: Erbb4-null mice; assay: Survival of Erbb4-null mice under AngII treatment; assay type: in vivo, mouse; design: key to Survival probability in AngII-treated Erbb4-null mice: 0: Survived until end of experiment; 1: Died before the end of the experiment
Description: Floxed Erbb4 mice (Erbb4^f/f; C57BL/6N; 129-Erbb4tm1Fej/Mmucd, MMRRC, #010439-UCD) were crossed with CAGGCre-ER^TM mice (Jackson Laboratory, 004682) containing the Tg(CAG-cre/Esr1*)5Amc transgene that expresses Cre recombinase under the control of a chicken beta actin promoter/enhancer coupled to the human cytomegalovirus immediate-early gene enhancer, resulting in expression of tamoxifen-inducible Cre-ERT in most cell types. To induce Cre recombinase-mediated deletion of Erbb4, eleven-week-old female and male iCAGGCre-ER^TM/Erbb4^f/f mice were intraperitoneally injected with tamoxifen (Merck, T5648; 10 mg/kg; in corn oil) daily for 5 consecutive days.
Statistical analysis was performed using GraphPad Prism version 10. Data are presented as the mean value of biological replicates (unless stated otherwise) ± SD. Data was checked for normality using the Shapiro–Wilk normality test. […]
Supplementary Figure 6. […] (a) Representative images of Masson’s trichrome staining of AngII-induced myocardial fibrosis following treatment with NA-1 and corresponding graphs showing the quantitation for total and perivascular fibrosis in male mice (n=5 male mice in Ctrl and AngII/Veh group, n=4 male mice in AngII/NA-1 group). […]

[3] = test system: HCFs; assay: In vitro collagen expression: COL3A1 mRNA in HCFs stimulated with TGF-β1; assay type: cell-based, human
Experimental: HCFs were seeded at a density of 1.5 ×10^5 cells/well in doxycycline-free medium in 12-well plates (Greiner Bio-One, 665180) and incubated overnight. […] Compounds were pre-incubated for 10 min before addition of TGF-β1.
RNA was extracted using Nucleospin RNA XS (Macherey-Nagel, 740902.50) according to the manufacturer’s instructions. For cDNA synthesis, total RNA was added to a mixture containing buffer with random hexamers and reverse transcriptase enzyme (TaqMan reverse transcription reagents, Applied biosystems, N8080234) after which samples were incubated for 10 min at 25 °C, 30 min at 48 °C, and 5 min at 95 °C. RT-qPCR was performed on QuantStudio 3 Real-time PCR system (Applied Biosystems) using Taqman Universal PCR Master Mix (Applied Biosystems, 4304437) and Taqman primers according to the manufacturer’s instructions. Settings were as follows: […] followed by 10 min at 95 °C, 40 cycles (45 cycles for ERBB4) of denaturation at 95 °C for 15 s, and 1 min at 60 °C. All reactions were run in duplicate, and all data were normalized against housekeeping genes glyceraldehyde-3-phosphate dehydrogenase (GAPDH), beta-actin (ACTB), or phosphoglycerate kinase 1 (PGK1). Expression levels were calculated using the comparative cycle method and expressed as fold change (FC) to appropriate controls. The following TaqMan primers were used (Thermo Fisher Scientific): GAPDH (Hs02758991_g1, Mm99999915_g1 and Rn01775763_g1), PGK1 (Hs99999906_m1), ID2 (Hs04187239_m1), BMPR1B (Hs01010965_m1), CACNA2D4 (Hs00297782_m1), DUSP2 (Hs00358879_m1), NR4A1 (Hs00374226_m1), SGK1 (Hs00178612_m1), COL1A1 (Mm00801666_g1), COL3A1 (Hs00943809_m1 and Mm00802305_g1), ERBB4 (Hs00955525_m1 and Rn00572447_m1), ACTB (Mm02619580_g1) and ANP (Mm01255747_g1).

## OO [Compound H2O2, hydrogen peroxide, reference compound]
[1]; 100 µM H2O2
  total cell death of iAMs: 62%
[1]; H2O2 vs Vehicle, single replicates
  total cell death of iAMs, validation H2O2: 48.19 and 54.13 and 68.52 and 60.96 and 64.53 and 71.34 and 65.79 and 69.72 and 69.16 and 66.75 and 64.62 and 50.66 and 53.52 and 64.15

## O=c1cc(N2CCOCC2)oc2c(-c3ccccc3)cccc12 [LY294002, reference compound]
[1]; H2O2/Veh + LY294002 (20 µM), single replicates
  total cell death of iAMs: 32.812 and 23.1247 and 24.542 and 32.4283
[1]; Veh + LY294002 (20 µM), no H2O2, single replicates
  total cell death of iAMs: 4.366 and 3.706 and 3.828 and 4.745
[1]; iAMs treated with H2O2
  effect of LY294002 pretreatment on pro-survival effect of EF-1 (in words): blocked the pro-survival effect of EF-1

## angiotensin II (DRVYIHPF; Angiotensin-2; UniProt P01019 25-32, looked up) [AngII, inducer of hypertrophy in iAMs and of myocardial fibrosis in mice]
[2]; 1000 ng/kg AngII, Erbb4-null mice, individual animals
  Survival probability in AngII-treated Erbb4-null mice: 1 and 0
[2]; AngII dose of 1000 ng/kg/day
  mortality in Erbb4-null mice: 80%

## transforming growth factor β1 [TGF-β1, reference compound]
[3]; TGF-β1 10 ng/mL
  increase of COL3A1 mRNA levels in HCFs: 36%
[3]; TGFβ vs Vehicle, single replicates
  COL3A1 mRNA expression (FC), HCF validation TGFβ: 1.323 and 1.4 and 1.364
